# Legend:
# [1] = target: T1, ROR gamma ligand-binding domain (LBD) (hRORg) (Homo sapiens, UniProt P51449); assay: GAL4-RORγ transactivation (luciferase reporter, HG5LN HeLa line); format: cell-based; details: HG5LN HeLa line with GAL4 DBD fused to ROR gamma LBD, 18 hours incubation
# T1 construct: expressed in transfected cells; host or cells: HG5LN (HeLa line with GAL4-responsive luciferase reporter)
# T1 sequence (P51449 269-508 limits assumed): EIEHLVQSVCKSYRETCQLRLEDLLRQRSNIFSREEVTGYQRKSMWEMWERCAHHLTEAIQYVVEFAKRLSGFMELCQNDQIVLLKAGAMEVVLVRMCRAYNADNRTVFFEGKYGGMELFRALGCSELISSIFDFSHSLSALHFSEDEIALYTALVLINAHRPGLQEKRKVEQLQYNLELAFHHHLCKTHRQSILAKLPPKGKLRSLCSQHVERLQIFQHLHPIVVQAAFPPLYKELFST
# Outline: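 HeLa HG5LN cells stably carrying a GAL4-responsive luciferase reporter and GAL4 DBD–RORγ LBD fusion; seeded 4 h, then compound 18 h at 37 °C, 5% CO2. Luminescence normalized between DMSO and saturating reference-inhibitor controls as % inhibition; IC50 from 4-parameter logistic fit.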
# [2] = test system: IL-17A secretion by CD4+ cells; assay: IL-17A secretion by CD4+ cells (HTRF); format: cell-based; details: 96 h; human peripheral blood CD4+ cells activated with anti-CD3 and anti-CD28, 4 days incubation, IL-17A by HTRF; read-out: IC50 hCD4/IL17
# Description: This model allows measurement of the effect of inhibitors on IL-17A secretion by CD4+ cells. The cells are frozen CD4+ cells (STEMCELL, #70026), isolated from peripheral human blood and activated with anti-CD3 and anti-CD28 antibodies. The amount of IL-17A secreted is measured by the TR-FRET (kit HTRF® Human Interleukin 17A (Cisbio, #64H17PEC)) technology.
# The cells are rapidly thawed, resuspended in their culture medium (RPMI inactivated 10% FCS) supplemented with soluble anti-CD28 antibodies and seeded (100 000 cells/well) in 96-well plates precoated with anti-CD3 antibodies. The cells are then treated with the ranges of inhibitors to be tested (from 1000 nM to 0.05 nM, 0.1% DMSO). After 4 days of incubation, the HTRF signal is measured using a microplate reader (λexcitation=337 nm, λemission=620/665 nm). The ratios obtained (665/620) are normalized relative to the positive control (cells activated with anti-CD3 and anti-CD28, 0.1% DMSO). The IC50 values are calculated from a 4-parameter logistic model using the XLFit software (IDBS).
Compound,IC50 [1] [nM],IC50 [2] [nM]
"CCc1ccc(N(CC(C)C)S(=O)(=O)c2ccc3c(c2)C(O)CCN3Cc2cn[nH]c2)cc1 (stereo not shown) [Compound 45, 4-hydroxy-1-(1H-pyrazol-4-ylmethyl)-1,2,3,4-tetrahydroquinoline-6-sulfonic acid (4-ethylphenyl)isobutylamide]",100 to 1000,< 100
"CCc1ccc(N(CC(C)C)S(=O)(=O)c2ccc3c(c2)C(O)CCN3CC2CN(C(=O)OC)C2)cc1 (stereo not shown) [Compound 46, methyl ester of 3-{6-[(4-ethylphenyl)isobutylsulfamoyl]-4-hydroxy-3,4-dihydro-2H-quinolin-1-ylmethyl}azetidine-1-carboxylic acid]",100 to 1000,100 to 1000
"Cc1cc(C)c(N(CC(C)C)S(=O)(=O)c2ccc3c(c2)C(O)CCN3CC2CCOCC2)cn1 (stereo not shown) [Compound 66, 4-hydroxy-1-(tetrahydropyran-4-ylmethyl)-1,2,3,4-tetrahydroquinoline-6-sulfonic acid (4,6-dimethylpyridin-3-yl)isobutylamide]",> 1000,> 1000

# Now from value to compound:
IC50 [1] [nM],IC50 [2] [nM],Compound
< 100,< 100,"CCc1ccc(N(CC(C)C)S(=O)(=O)c2ccc3c(c2)C(O)CCN3Cc2ccnnc2)cc1 (stereo not shown) [Compound 29, 4-hydroxy-1-pyridazin-4-ylmethyl-1,2,3,4-tetrahydroquinoline-6-sulfonic acid (4-ethylphenyl)isobutylamide]"
< 100,< 100,"CCc1ccc(N(CC(C)C)S(=O)(=O)c2ccc3c(c2)C(O)CCN3C[C@H]2[C@@H]3COC[C@@H]32)cc1 (stereo partly drawn) [Compound 37, 4-hydroxy-1-[(1S,5R,6S)-1-(3-oxabicyclo[3.1.0]hex-6-yl)methyl]-1,2,3,4-tetrahydroquinoline-6-sulfonic acid (4-ethylphenyl)isobutylamide]"

# Source: patent US10550110B2, “Tetrahydroquinoline sulfonamide derivatives as inverse agonists of retinoid-related orphan receptor gamma (ROR gamma (t))” (GALDERMA RESEARCH & DEVELOPMENT, priority 2014, dated 2020)
